Assay results reported in patent publication US6608086B2, “Dihydropyridines and new uses thereof” (Synaptic Pharmaceutical Corporation, priority 1993, dated 2003).
Like-named read-outs stand apart in the source and are kept apart here.

What was measured:
[1] = molecular target: T1, α1A Human Adrenergic Receptor (Homo sapiens, UniProt P25100); assay: Radioligand binding, [3H]prazosin, cloned human α1A adrenergic receptor
T1 construct: The entire coding region of α1A (1719 bp); expressed in transfected cells
T1 sequence (P25100 1-572): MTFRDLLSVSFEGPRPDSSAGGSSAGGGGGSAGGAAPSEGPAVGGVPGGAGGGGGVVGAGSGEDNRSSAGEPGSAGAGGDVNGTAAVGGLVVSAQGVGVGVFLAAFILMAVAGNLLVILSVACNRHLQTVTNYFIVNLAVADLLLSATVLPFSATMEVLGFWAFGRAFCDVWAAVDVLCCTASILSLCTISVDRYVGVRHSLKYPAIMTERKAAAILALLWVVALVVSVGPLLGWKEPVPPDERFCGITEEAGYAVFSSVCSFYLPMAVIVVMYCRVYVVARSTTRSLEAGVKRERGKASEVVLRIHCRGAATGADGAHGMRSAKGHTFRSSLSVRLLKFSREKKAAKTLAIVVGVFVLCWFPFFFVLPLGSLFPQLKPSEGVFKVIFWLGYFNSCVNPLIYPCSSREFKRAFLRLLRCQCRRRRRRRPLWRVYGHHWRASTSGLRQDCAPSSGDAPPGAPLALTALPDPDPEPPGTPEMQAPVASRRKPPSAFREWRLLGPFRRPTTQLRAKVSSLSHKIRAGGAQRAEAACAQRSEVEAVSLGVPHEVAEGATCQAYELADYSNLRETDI
How it was run: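 [3H]prazosin 0.5 nM, transfected LM(tk−) membranes, 37° C, 20 min. Buffer 50 mM Tris-HCl/1 mM MgCl2/0.1% ascorbate, pH 7.5. NSB: 10 μM phentolamine. Filtration harvest.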

[2] = molecular target: T2, α2C receptor (Homo sapiens, UniProt P18825); assay: Competition binding, [3H]rauwolscine, human α2C receptor
T2 construct: host or cells: LM(tk-) cells, line L-α2C
T2 sequence (P18825 1-462): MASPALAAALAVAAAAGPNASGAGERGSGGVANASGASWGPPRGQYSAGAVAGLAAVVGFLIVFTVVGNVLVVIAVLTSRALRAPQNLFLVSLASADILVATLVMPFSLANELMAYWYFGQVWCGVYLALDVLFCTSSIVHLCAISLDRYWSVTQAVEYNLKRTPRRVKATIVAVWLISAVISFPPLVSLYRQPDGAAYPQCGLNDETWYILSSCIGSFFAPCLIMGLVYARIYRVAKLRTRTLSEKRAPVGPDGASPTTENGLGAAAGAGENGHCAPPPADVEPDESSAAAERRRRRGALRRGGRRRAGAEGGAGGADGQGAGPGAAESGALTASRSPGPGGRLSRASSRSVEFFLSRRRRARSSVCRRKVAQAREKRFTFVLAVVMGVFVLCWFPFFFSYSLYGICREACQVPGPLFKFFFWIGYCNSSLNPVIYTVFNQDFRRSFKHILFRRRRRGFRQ
How it was run: (§1)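 Filter-bound [3H]rauwolscine (0.5 nM) was measured after equilibrium competition with test antagonists on lysates of LM(tk−) cells stably transfected with each human α2 subtype. Buffer: 25 mM glycylglycine, pH 7.6 at room temperature; 10 μM phentolamine gave nonspecific binding.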

[3] = molecular target: T3, α2A receptor (Homo sapiens, UniProt P08913); assay: Competition binding, [3H]rauwolscine, human α2A receptor
T3 construct: host or cells: LM(tk-) cells, line L-α2A
T3 sequence (P08913 1-465): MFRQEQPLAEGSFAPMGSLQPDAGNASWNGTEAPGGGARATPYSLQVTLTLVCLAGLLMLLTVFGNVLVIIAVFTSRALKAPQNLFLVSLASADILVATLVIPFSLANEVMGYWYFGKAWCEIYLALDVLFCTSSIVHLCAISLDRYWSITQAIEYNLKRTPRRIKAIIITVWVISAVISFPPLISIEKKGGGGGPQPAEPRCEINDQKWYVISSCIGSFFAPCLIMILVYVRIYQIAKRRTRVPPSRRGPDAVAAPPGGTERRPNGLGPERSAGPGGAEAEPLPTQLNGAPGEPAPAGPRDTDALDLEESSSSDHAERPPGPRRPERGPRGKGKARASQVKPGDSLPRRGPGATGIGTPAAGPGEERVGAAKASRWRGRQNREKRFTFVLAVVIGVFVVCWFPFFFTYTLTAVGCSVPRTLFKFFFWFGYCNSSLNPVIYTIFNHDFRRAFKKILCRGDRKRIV
How it was run: as §1

[4] = [3H]rauwolscine, human α2A receptor, LM(tk-) cells, read-out: PKi alpha-2 2a (converted)
[5] = [3H]prazosin, cloned human receptor in LM(tk-) cell membranes, SEM and n in lines below
[6] = [3H]rauwolscine, LM(tk-) cell line L-α2C, SEM and n in lines below
[7] = [3H]rauwolscine, LM(tk-) cell line L-α2A, SEM and n in lines below
[8] = [3H]prazosin, cloned human α1A receptor, LM(tk−) cell membranes
[9] = [3H]rauwolscine, human α2C receptor, LM(tk−) cells
[10] = [3H]rauwolscine, human α2A receptor, LM(tk−) cells
[11] = [3H]rauwolscine, human receptor, LM(tk-) cell lysates, mean, read-out: PKi alpha-2 2c (converted)
[12] = [3H]rauwolscine, human receptor, LM(tk-) cell lysates, mean, read-out: PKi alpha-2 2a (converted)

## CC1=C(C(N)=O)C(c2ccc([N+](=O)[O-])cc2)C(C(=O)NCCCN2CCC(C(=O)O)(c3ccccc3)CC2)=C(C)N1 (stereo not drawn) [Example 210, 5-Carboxamido-3-{N-[3-(4-carboxy-4-phenylpiperidin-1-yl)propyl]}carboxamido-1,4-dihydro-2,6-dimethyl-4-(4-nitrophenyl)pyridine]
[1]; PKi alpha-1 1a
  Ki: 72400 nM
[2]; PKi alpha-2 2c
  Ki: 21900 nM
[3]
  Ki: 11000 nM

## CCOC(=O)C1(c2ccccc2)CCN(CCCNC(=O)C2=C(COCC(F)(F)F)NC(C)=C(C(N)=O)C2c2ccc([N+](=O)[O-])cc2)CC1 (stereo not drawn) [Example 243, 5-Carboxamido-3-(N-(3-(4-ethoxycarbonyl-4-phenylpiperidin-1yl)propyl))carboxamido-2-((2,2,2-trifluoroethyl)oxy)methyl-1,4dihydro-6-methyl-4-(4-nitro)phenylpyridine]
[1]; [3H]prazosin, cloned human α1A receptor, LM(tk-) cell membranes, read-out: PKi alpha-1 1a (converted)
  Ki: 1510 nM
[2]; [3H]rauwolscine, human α2C receptor, LM(tk-) cells, read-out: PKi alpha-2 2c (converted)
  Ki: 1070 nM
[3]; [4]
  Ki: 2240 nM

## CC(=O)C1=C(C)NC(COCCN)=C(C(=O)NCCCN2CCC(c3ccccc3)(c3ccccc3)CC2)C1c1ccc(F)cc1 (stereo not drawn) [Example 242, 5-Acetyl-2-((2-aminoethyl)oxy)methyl-4-(4-fluoro)phenyl-1,4-dihydro-6-methyl-3-(N-(3-(4,4-diphenylpiperidin-1-yl)propyl))carboxamidopyridine]
[1]; PKi alpha-1 1a, [3H]prazosin, cloned human α1A receptor, LM(tk-) cell membranes
  Ki: 224 nM
[2]; PKi alpha-2 2c, [3H]rauwolscine, human α2C receptor, LM(tk-) cells
  Ki: 257 nM
[3]; [4]
  Ki: 1410 nM

## CCC1=C(C(=O)NCCCN2CCc3cc(OC)c(OC)cc3C2)C(c2ccc([N+](=O)[O-])cc2)C(C(N)=O)=C(C)N1.Cl.O (stereo not drawn) [Example 76, 5-Carboxamido-2-ethyl-1,4-dihydro-3-(N-(3-(1,2,3,4-tetrahydro-6,7-dimethoxyisoquinolin-2-yl)propyl)) carboxamido-6-methyl-4-(4-nitro)phenylpyridine hydrochloride hydrate]
[1]; [5]
  pKi alpha-1 1a: 5.89
[2]; [6]
  pKi alpha-2 2c: 7.70
[3]; [7]
  pKi alpha-2 2a: 6.96

## COC(=O)C1=C(C)NC2=C(C(=O)N(CCCN3CCC(c4ccccc4)(c4ccccc4)CC3)C2)C1c1ccc([N+](=O)[O-])cc1.Cl.O (stereo not drawn) [Example 91, 1,4,7,7-Tetrahydro-3-methoxycarbonyl-6-methyl-5-oxo-4-(4-nitrophenyl)-6-(3-(4,4-diphenylpiperidin-1-yl)) propylpyrrolo[3,4-b]pyridine, hydrochloride hydrate]
[1]; [8]
  pKi alpha-1 1a: 6.29
[2]; [9]
  pKi alpha-2 2c: 6.31
[3]; [10]
  pKi alpha-2 2a: 6.06

## CCC1=C(C(=O)NC)C(c2ccc([N+](=O)[O-])cc2)C(C(=O)NCCCN2CCC(c3ccccc3)(c3ccccc3)CC2)=C(CCCCN)N1 (stereo not drawn) [Example 172, 2-(4-Aminobutyl)-6-ethyl-1,4-dihydro-5-(N-methyl)carboxamido-4-(4-nitrophenyl)-3-{N-[3-(4,4-diphenylpiperidin-1-yl)propyl]}carboxamidopyridine]
[1]; PKi alpha-1 1a, [3H]prazosin, cloned human receptor, LM(tk-) cell membranes, mean
  Ki: 813 nM
[2]; [11]
  Ki: 692 nM
[3]; [12]
  Ki: 2340 nM

## COC(=O)C1=C(C)NC(c2ccccc2)=C(C(=O)NCCCN2CCC(c3ccccc3)CC2)C1c1ccc([N+](=O)[O-])cc1.Cl (stereo not drawn) [Example 79, 1,4-Dihydro-5-methoxycarbonyl-6-methyl-4-(4-nitro)phenyl-2-phenyl-3-(N-(3-(4-phenylpiperidin-1-yl)propyl)) carboxamidopyridine hydrochloride]
[1]; [5]
  pKi alpha-1 1a: 6.99
[2]; [6]
  pKi alpha-2 2c: 7.21
[3]; [7]
  pKi alpha-2 2a: 6.84

## COC(=O)C1=C(C)NC(C)=C(C(=O)NCCCN2CCC(c3ccccc3)CC2)C1c1cccc([N+](=O)[O-])c1 (stereo not drawn) [Example 30, 1,4-Dihydro-3-methoxycarbonyl-2,6-dimethyl-4-(3-nitrophenyl)-5-(N-(3-(4-phenylpiperidin-1-yl)propyl)carboxamido)pyridine]
[1]; [3H]prazosin, cloned human receptor in LM(tk-) cell membranes, SEM and n in lines below, read-out: pKi alpha-1 1a (converted)
  Ki: 155 nM
[2]; [3H]rauwolscine, LM(tk-) cell line L-α2C, SEM and n in lines below, read-out: pKi alpha-2 2c (converted)
  Ki: 49 nM
[3]; [3H]rauwolscine, LM(tk-) cell line L-α2A, SEM and n in lines below, read-out: pKi alpha-2 2a (converted)
  Ki: 117 nM

## CCC1=C(C(=O)NCCCCN2CCC(c3ccccc3)CC2)C(c2ccc([N+](=O)[O-])cc2)C(C(N)=O)=C(C)N1.Cl.O (stereo not drawn) [Example 77, 5-Carboxamido-2-ethyl-1,4-dihydro-6-methyl-4-(4-nitro)phenyl-3-(N-(4-(4-phenylpiperidin-1-yl)butyl))carboxamidopyridine hydrochloride hydrate]
[1]; [5]
  pKi alpha-1 1a: 6.83
[2]; [6]
  pKi alpha-2 2c: 7.42
[3]; [7]
  pKi alpha-2 2a: 6.95

## COC(=O)C1(c2ccccc2)CCN(CCCNC(=O)C2=C(CCCCN)NC(C)=C(C(C)=O)C2c2ccc([N+](=O)[O-])cc2)CC1 (stereo not drawn) [Example 178, 5-Acetyl-2-(4-aminobutyl)-1,4-dihydro-3-{N-[3-(4-methoxycarbonyl-4-phenylpiperidin-1-yl)propyl]}carboxamido-6-methyl-4-(4-nitrophenyl) pyridine]
[1]; [3H]prazosin, cloned human receptor, LM(tk-) cell membranes, mean, read-out: PKi alpha-1 1a (converted)
  Ki: 832 nM
[2]; [11]
  Ki: 398 nM
[3]; [12]
  Ki: 912 nM

## 5-Acetyl-1,4-dihydro-2,6-dimethyl-4-(4-nitrophenyl)-3-[3-(4,4-diphenylpiperidin-1-yl)propoxy]carbonylpyridine hydrochloride hemihydrate [Example 49]
[1]
  pKi alpha-1 1a: 6.94
[2]
  pKi alpha-2 2c: 6.86
[3]
  pKi alpha-2 2a: 6.63

## CNC(=O)C1=C(C)NC(C)=C(C(=O)NCCCN2CCC(c3ccccc3)(c3ccccc3)CC2)C1c1ccc([N+](=O)[O-])cc1 (racemic) [(±)-119, 1,4-Dihydro-2,6-dimethyl-5-(N-Methyl) carboxamido-4-(4-nitrophenyl)-3-{N-[3-(4,4-diphenylpiperidin-1-yl)propyl]}carboxamidopyridine]
[1]
  pKi alpha-1 1a: 6.21
[2]
  pKi alpha-2 2c: 6.49
[3]
  pKi alpha-2 2a: 6.4

## CCOC(=O)C1=C(CNCCCN2CCC(c3ccccc3)(c3ccccc3)CC2)NC(C)=C(C(=O)OC)C1c1ccc([N+](=O)[O-])cc1.Cl.O (stereo not drawn) [Example 90, 3-Ethoxycarbonyl-1,4-dihydro-5-methoxycarbonyl-6-methyl-4-(4-nitro)phenyl-2-(N-(3-(4,4,-diphenylpiperidin-1-yl)propyl)amino)methylpyridine, hydrochloride hydrate]
[1]; [8]
  pKi alpha-1 1a: 6.52
[2]; [9]
  pKi alpha-2 2c: 6.79
[3]; [10]
  pKi alpha-2 2a: 6.13
